{"source": "patent US12133842B2", "about": "“Stable preservative-free mydriatic and anti-inflammatory solutions for injection” (RAYNE INTRAOCULAR LENSES LIMITED, priority 2012, dated 2024)", "key": {"[1]": {"tested_on": "African green monkey model of human phacoemulsification surgery", "assay": "Concentration-ranging study of phenylephrine and ketorolac, intraoperative irrigation, phacoemulsification surgical model, Example 6", "type": "in vivo", "description": "(§1) In each case an aliquot of the formulation was injected into a balanced salt solution (BSS, Baxter Healthcare, produce code 1A7233) as the irrigation vehicle carrier to a particular final dosing concentration as described below. The studies also utilized Proparacaine HCl (0.5%, Bausch & Lomb), Tropicamide (1.0%, Bausch & Lomb) and Ciprofloxacin HCl (3%, Alcon) to the extent described below.\nThe mydriatic and anti-inflammatory properties of the test agents were evaluated in an African green monkey model of human phacoemulsification surgery. Prior to surgery, baseline measures and assessments were performed on both eyes in each monkey to determine pupil diameter, lens and iris integrity, corneal thickness, and anterior chamber flare and cell count by qualitative scoring under biomicroscopy and quantitative flare photometry using a Kowa FM-500 instrument. A phacoemulsification surgery with lens replacement with a polymethyl methacrylate (PMMA) artificial lens was performed using a Storz Premier anterior phacoemulsification machine. The procedure was only performed on the right eye to minimize surgery position variability, allow the left to serve as control, and to minimize the consequence of any possible vision loss induced.\nTest animals were placed in a prone position under ketamine/xylazine anesthesia augmented with one drop of topical proparacaine. A small incision was made in the cornea of the right eye with a MVR 20 G lance blade, through which 0.4-0.6 mL of viscoelastic (2% hydroxypropyl methylcellulose, EyeCoat, Eyekon Medical) was introduced into the anterior chamber via a viscoelastic injector. A corneal incision was made 1.0 mm anterior to the limbus using a 2.65 mm straight clear cornea bi-beveled blade. Irrigation was applied with the phacoemulsification hand piece to remove viscoelastic and introduce the test perfusate. After irrigation for a total of four minutes, irrigation was stopped and the anterior chamber refilled with viscoelastic. A capsulorhexis was performed and the phacoemulsification tip reintroduced into the anterior chamber with the application of phacoemulsification energy to disrupt the lens and allow aspiration and lens fragment removal. Irrigation was extended for a period after lens removal to standardize intraocular perfusate delivery across all treatment groups (a total of 14 minutes during this phacoemulsification segment of the irrigation). Following the phacoemulsification and irrigation procedure, a PMMA intraocular lens (IOL) was inserted and an additional two minutes of irrigation perfumed, after which the corneal incision was closed with two 12.0 nylon sutures. Irrigation with a test fluid or vehicle control, as described below, was performed for a total of 20 minutes at a flow rate of 20 mL/min, prior to, during and after phacoemulsification and lens replacement.\n(§2) In these studies, laser flare photometry was performed at baseline, 4.5, 24, 48 hours and 1 week after the initiation of the surgical procedure using a Kowa FM-500 (Kowa Company, Tokyo Japan). The Kowa FM-500 measures laser light scattering to quantify anterior chamber flare. A laser is directed into the anterior chamber and protein molecules, released into the anterior chamber during an inflammatory response, pass through the focal point scattering laser light. This light scattering is quantified by a photomultiplier tube as photon counts per millisecond. At each observation point, measurements were collected until seven acceptable readings (difference between two background measurements <15%) were obtained and the lowest and highest readings were deleted and the mean value+/−the standard deviation calculated, as specified by the manufacturer.\nThe time course of the mydriatic effect was documented through video recording of the pupil during the perfusion procedure. Pupil diameter and the fixed width of the lid speculum (11 mm) were measured from the screen image to allow calculation of the pupil diameter in millimeters."}, "[2]": {"tested_on": "subjects undergoing unilateral cataract extraction with lens replacement (CELR)", "assay": "Phase 2b human clinical study, irrigation during cataract extraction with lens replacement (CELR), Example 10", "type": "in vivo", "details": "for Subjects Having Pupil Diameter <6 mm during CELR (number of subjects) / Subjects Having Pupil Diameter <6 mm during CELR (percent): intent-to-treat, n = 49 combination, 52 KE, 49 PE", "description": "A Phase 2b human clinical study evaluated a ketorolac and phenylephrine combination drug composition, formulated in accordance with Formula 1 of the present invention-, for its effect on the maintenance of intra-operative mydriasis (pupil dilation) and reduction of postoperative pain and irritation resulting from cataract and other lens replacement surgery. The combination drug composition was diluted into a balanced salt solution irrigation carrier prior to intraocular administration during intraocular surgical procedures.\nThe subject Phase 2b study was a randomized, parallel group, vehicle-controlled, factorial design study, and was run to compare phenylephrine (PE), ketorolac (KE) and the combination drug composition containing both PE and KE in subjects undergoing unilateral cataract extraction with lens replacement (CELR) using a coaxial phacoemulsification process with insertion of an acrylic lens. Administration of test irrigation solutions occurred in a double-masked fashion. The study evaluated, in a four-arm full-factorial design, the contribution of the two active pharmaceutical ingredients (PE and KE, alone and in combination) to the maintenance of mydriasis and post-operative reduction in pain when administered diluted in balanced salt solution (BSS). The study also explored the effect of the combination drug composition, PE, and KE on postoperative inflammation. Subjects were randomized to one of the following four treatment arms in a 1:1:1:1 fashion: • a. BSS vehicle • b. 483 μM PE in BSS • c. 89 μM KE in BSS • d. the combination drug composition containing 483 μM PE and 89 μM KE in BSS.\nAll subjects in this study received preoperative mydriatics and anesthetics. In each of the four groups, the respective irrigation treatment was administered as a single irrigation of the anterior chamber of the eye during the CELR surgical procedure, with a mean of 8 minutes of exposure in this study. In addition, at the end of the procedure, the anterior chamber was filled with the irrigation treatment. The change in pupil diameter over time from surgical baseline (immediately prior to surgical incision) to the end of the surgical procedure (wound closure) was measured, as was postoperative pain on the day of operation as measured by the Visual Analog Scale (VAS) at 2, 4 6, 8 and 10-12 hours and at other times recorded by the patient prior to taking rescue pain medication."}, "[3]": {"details": "cited from earlier work"}, "[4]": {"tested_on": "African green monkeys undergoing phacoemulsification surgery with lens replacement", "assay": "GLP toxicology (safety) study of PE-KE irrigation in phacoemulsification surgery, Example 9", "type": "in vivo, African green monkey", "details": "tropicamide control group; thirty seconds after intracameral 150 μl BSS alone", "description": "as §1\n(§3) The mydriatic and anti-inflammatory properties of the test agents were evaluated in an African green monkey model of human phacoemulsification surgery. Prior to surgery, baseline measures and assessments were performed on both eyes in each monkey to determine pupil diameter, lens and iris integrity, corneal thickness, and anterior chamber flare and cell count by qualitative scoring under biomicroscopy and quantitative flare photometry using a Kowa FM-500 instrument. […]\nA nonclinical GLP toxicology study was carried out in African green monkeys. […] Three concentrations were evaluated: 720 μM PE and 90 μM KE (720:90 μM) in the low concentration group, 2160 μM PE and 270 μM KE (2160:270 μM) in the mid concentration group, and 7200 μM PE and 900 μM KE (7200:900 μM) in the high concentration group.\nA separate control group was evaluated as well. […]"}, "[5]": {"tested_on": "African green monkey model of human phacoemulsification surgery", "assay": "Phenylephrine and ketorolac combination (90 μM PE, 30 μM KE) irrigation in phacoemulsification surgical model, Example 7", "type": "in vivo", "description": "as §1\nas §3, with “instrument. A phacoemulsification surgery with lens replacement with a polymethyl methacrylate (PMMA) artificial lens was performed using a Storz Premier anterior phacoemulsification machine.” for “instrument.”\nas §2, with “A laser is directed into the anterior chamber and protein molecules, released into the anterior chamber during an inflammatory response, pass through the focal point scattering laser light.” left out\nThe time course of the mydriatic effect was documented through video recording of the pupil during the perfusion procedure. Pupil diameter and the fixed width of the lid speculum (11 mm) were measured from the screen image to allow calculation of the pupil diameter in millimeters. […]"}}, "note": "Entries after “also recorded” stand apart in the source; their conditions may differ. Where a name gives a salt, the structure may show the parent alone.", "data": [{"compound": "O=C(c1ccccc1)c1ccc2n1CCC2C(=O)O", "note": "(racemic) [ketorolac, (+/−)-5-Benzoyl-2,3-dihydro-1H-pyrrolizine-1-carboxylic acid:2-amino-2(hydroxymethyl)-1,3-propanediol (1:1)]", "values": [{"measurement": "flare measurements versus control at 24 and 48 hours", "setting": "[1]; high and mid dose ketorolac, not statistically significant", "result": "remained lower relative to the control group"}, {"measurement": "mydriasis relative to BSS alone", "setting": "[1]; ketorolac 3-30 μM in BSS, initial two minutes before phenylephrine", "result": "No statistical differences; also recorded: did not result in a change in mydriasis substantially different from that observed with BSS alone"}, {"measurement": "flare measures / anterior chamber inflammation versus BSS control at 4.5 hours", "setting": "[1]; mid (10 μM) and high (30 μM) ketorolac groups combined, F=5.17, P<0.0223", "result": "statistically significant difference; also recorded: positive effect of ketorolac on anterior chamber inflammation"}, {"measurement": "anti-miotic effect", "setting": "[2]; 89 μM KE with 483 μM PE", "result": "provided an anti-miotic effect on top of the effect of phenylephrine"}, {"measurement": "subjects with extreme constriction (pupil reduction of 2.5 mm or more)", "setting": "[2]; 483 μM PE and/or 89 μM KE in BSS", "result": 21, "unit": "%"}, {"measurement": "Subjects Having Pupil Diameter <6 mm during CELR (number of subjects)", "setting": "[2]", "result": 18}, {"measurement": "Subjects Having Pupil Diameter <6 mm during CELR (percent)", "setting": "[2]", "result": 35, "unit": "%"}, {"measurement": "solubility of three crystal forms", "setting": "[3]; water", "result": "equally soluble in water"}]}, {"compound": "CNC[C@H](O)c1cccc(O)c1", "note": "[phenylephrine, (−)-m-Hydroxy-a-[(methylamino)methyl]benzyl alcohol hydrochloride]", "values": [{"measurement": "pupil dilation after adding phenylephrine to ketorolac or BSS perfusate", "setting": "[1]; 30 μM phenylephrine added at two minutes", "result": "rapid dilation occurred"}, {"measurement": "maximal mydriasis attained, dependence on concentration", "setting": "[1]; 3, 10, 30, 90 μM", "result": "concentration-dependent"}, {"measurement": "flare measures relative to tropicamide control", "setting": "[1]; all time points, Student Newman-Keuls, hydrochloride", "result": "no treatment effect on flare measures; also recorded: no significant difference between treatment groups"}, {"measurement": "mean dilation (pupil diameter) at later time points", "setting": "[1]; high phenylephrine group (30 μM), approaches anatomic limit", "result": "~8.3", "unit": "mm"}, {"measurement": "concentration resulting in mydriasis exceeding preoperative topical 1% tropicamide", "setting": "[1]; in BSS perfusate", "result": "≥ 10", "unit": "µM"}, {"measurement": "mydriasis onset and maintenance (video pupil data)", "setting": "[1]; phenylephrine 3-90 μM in BSS anterior chamber perfusate", "result": "rapid onset mydriasis which was maintained throughout the surgical procedure"}, {"measurement": "flare photometry and pachymetry measures (anterior chamber inflammation, corneal edema)", "setting": "[1]; phenylephrine added to perfusate", "result": "did not indicate a reduction in anterior chamber inflammation or corneal edema"}, {"measurement": "Subjects Having Pupil Diameter <6 mm during CELR (number of subjects)", "setting": "[2]", "result": 11}, {"measurement": "Subjects Having Pupil Diameter <6 mm during CELR (percent)", "setting": "[2]", "result": 22, "unit": "%"}, {"measurement": "solubility", "setting": "[3]; water and alcohol", "result": "freely soluble in water and alcohol"}]}, {"compound": "tropicamide", "values": [{"measurement": "maximal pupil dilation relative to phenylephrine groups", "setting": "[1]; two drops 1% topical 20 minutes before BSS irrigation", "result": "lower maximal dilation than exhibited by the mid, high and highest concentration phenylephrine groups"}, {"measurement": "pupil diameter", "setting": "[4]", "result": "5.18±0.18", "unit": "mm"}, {"measurement": "mean pupil diameter", "setting": "[5]; control arm of previous efficacy studies, preoperative topical 1% tropicamide", "result": 5.9, "unit": "mm"}, {"measurement": "time at which pupil diameter plateaued", "setting": "[5]; monkey, in vivo", "result": "approximately 2.5 minutes"}, {"measurement": "maximal dilation relative to PE-KE group", "setting": "[5]; topical tropicamide 20 minutes before BSS irrigation", "result": "lower maximal dilation than exhibited by the PE-KE treatment group"}]}]}
